Consider 25 compounds from patent US7122558B2 (priority 2000, dated 2006).

Where a name gives a salt, the structure may show the parent alone.

For this assay, the target named is T1, human muscarinic receptors M3 (Homo sapiens, UniProt P20309).
T1 construct: expressed in transfected cells; host or cells: CHO-K1 (chinese hamster ovary-K1), stably transfected; membrane preparations
Nature of the assay: biochemical. The class given is binding. As to conditions: for inhibition at 0.1 µM: read-out: % INHIBITION concentration: 1.00E−07 M; for inhibition at 0.01 µM: read-out: % INHIBITION concentration: 1.00E−08 M.

T1 sequence (P20309 whole entry): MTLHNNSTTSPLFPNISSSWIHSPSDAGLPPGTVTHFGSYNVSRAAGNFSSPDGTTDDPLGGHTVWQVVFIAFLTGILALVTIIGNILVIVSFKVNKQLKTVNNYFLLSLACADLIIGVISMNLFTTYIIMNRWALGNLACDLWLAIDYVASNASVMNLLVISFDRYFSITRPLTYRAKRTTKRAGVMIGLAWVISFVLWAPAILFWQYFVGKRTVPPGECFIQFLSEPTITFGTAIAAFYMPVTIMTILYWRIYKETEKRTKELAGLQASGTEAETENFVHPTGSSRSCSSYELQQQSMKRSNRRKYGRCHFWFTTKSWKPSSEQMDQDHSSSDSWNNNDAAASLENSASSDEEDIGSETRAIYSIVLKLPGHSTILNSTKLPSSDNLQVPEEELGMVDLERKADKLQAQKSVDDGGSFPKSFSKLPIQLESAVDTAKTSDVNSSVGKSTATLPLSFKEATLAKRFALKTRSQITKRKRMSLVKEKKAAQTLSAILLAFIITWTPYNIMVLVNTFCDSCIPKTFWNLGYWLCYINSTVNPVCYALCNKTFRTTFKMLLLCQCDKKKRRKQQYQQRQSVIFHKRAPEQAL

For `C=CCC(O)(C(=O)O[C@H]1C[N+]2(CCCOc3ccccc3)CCC1CC2)c1cccs1` (stereo partly drawn) [Example 13, (3R)-3-(2-Hydroxy-2-thien-2-ylpent-4-enoyloxy)-1-(3-phenoxypropyl)-1-azoniabicyclo[2.2.2]octane bromide], the inhibition at 0.1 µM worked out at 76% and the inhibition at 0.01 µM is 36%.
In the same order, the values of `CCCCCC(O)(C(=O)O[C@H]1C[N+]2(CCCOc3ccccc3)CCC1CC2)c1cccs1` (stereo partly drawn) [Example 16, (3R)-3-(2-Hydroxy-2-thien-2-ylheptanoyloxy)-1-(3-phenoxypropyl)-1-azoniabicyclo[2.2.2]octane trifluoroacetate] are 74.2% and 36.3%.
In the same order, the values of `O=C(O[C@H]1C[N+]2(CCCOc3ccccc3)CCC1CC2)[C@](O)(c1cccs1)C1CCCC1` [Example 22, (3R)-3-[(2S)-2-Cyclopentyl-2-hydroxy-2-thien-2-ylacetoxy]-1-(3-phenoxypropyl)-1-azoniabicyclo[2.2.2]octane bromide] are 81.5% and 72%.
On the same counts, the results for `O=C(O[C@H]1C[N+]2(CCCc3cccs3)CCC1CC2)[C@](O)(c1cccs1)C1CCCC1` [Example 23, (3R)-3-[(2S)-2-Cyclopentyl-2-hydroxy-2-thien-2-yl-acetoxy]-1-(3-thien-2-ylpropyl)-1-azoniabicyclo[2.2.2]octane trifluoroacetate] are 75.6% and 63.3%.
Regarding `O=C(O[C@H]1C[N+]2(CCOc3ccccc3)CCC1CC2)[C@](O)(c1cccs1)C1CCCC1` [Example 24, (3R)-3-[(2S)-2-Cyclopentyl-2-hydroxy-2-thien-2-ylacetoxy]-1-(2-phenoxyethyl)-1-azoniabicyclo[2.2.2]octane bromide], the inhibition at 0.1 µM came out at 78% and the inhibition at 0.01 µM amounted to 56.6%.
In the same order, the values of `O=C(O[C@H]1C[N+]2(CCc3ccccc3)CCC1CC2)[C@](O)(c1cccs1)C1CCCC1` [Example 25, (3R)-3-[(2S)-2-Cyclopentyl-2-hydroxy-2-thien-2-ylacetoxy]-1-phenethyl-1-azoniabicyclo[2.2.2]octane trifluoroacetate] are 76.1% and 62.6%.
Consider `O=C(O[C@H]1C[N+]2(CCCc3ccccc3)CCC1CC2)[C@](O)(c1cccs1)C1CCCC1` [Example 26, (3R)-3-[(2S)-2-Cyclopentyl-2-hydroxy-2-thien-2-ylacetoxy]-1-(3-phenylpropyl)-1-azoniabicyclo[2.2.2]octane trifluoroacetate], for which the inhibition at 0.1 µM turned out to be 75.6% and the inhibition at 0.01 µM turned out to be 63.8%.
In the same order, the values of `O=C(O[C@H]1C[N+]2(CCCOc3ccc(F)cc3)CCC1CC2)[C@](O)(c1cccs1)C1CCCC1` [Example 28, (3R)-3-[(2S)-2-Cyclopentyl-2-hydroxy-2-thien-2-ylacetoxy]-1-[3-(4-fluorophenoxy)propyl]-1-azoniabicyclo[2.2.2]octane trifluoroacetate] are 78.3% and 60.6%.
On to `O=C(O[C@H]1C[N+]2(CCCOc3cccc(O)c3)CCC1CC2)[C@](O)(c1cccs1)C1CCCC1` [Example 31, (3R)-3-[(2S)-2-Cyclopentyl-2-hydroxy-2-thien-2-ylacetoxy]-1-[3-(3-hydroxyphenoxy)propyl]-1-azoniabicyclo[2.2.2]octane trifluoroacetate], for which the inhibition at 0.1 µM turned out to be 74.3% and the inhibition at 0.01 µM was determined as 54.3%.
Take `Cc1ccccc1OCCC[N+]12CCC(CC1)[C@@H](OC(=O)[C@](O)(c1cccs1)C1CCCC1)C2` [Example 33, (3R)-3-[(2S)-2-Cyclopentyl-2-hydroxy-2-thien-2-ylacetoxy]-1-(3-o-tolyloxypropyl)1-azoniabicyclo[2.2.2]octane trifluoroacetate]: the inhibition at 0.1 µM was found to be 72.8% and the inhibition at 0.01 µM came to 46.7%.
In the same order, the values of `N#Cc1cccc(OCCC[N+]23CCC(CC2)[C@@H](OC(=O)[C@](O)(c2cccs2)C2CCCC2)C3)c1` [Example 34, 1-[3-(3-Cyanophenoxy)propyl]-(3R)-3-[(2S)-2-cyclopentyl-2-hydroxy-2-thien-2-ylacetoxy]-1-azoniabicyclo[2.2.2]octane trifluoroacetate] are 85.3% and 68.3%.
On the same counts, the results for `CN(CCC[N+]12CCC(CC1)[C@@H](OC(=O)[C@](O)(c1cccs1)C1CCCC1)C2)c1ccccc1` [Example 36, (3R)-3-[(2S)-2-Cyclopentyl-2-hydroxy-2-thien-2-ylacetoxy]-1-[3-(methylphenylamino)propyl]-1-azoniabicyclo[2.2.2]octane trifluoroacetate] are 84.2% and 42%.
In the same order, the values of `O=C(O[C@H]1C[N+]2(CCCSc3ccccc3)CCC1CC2)[C@](O)(c1cccs1)C1CCCC1` [Example 37, (3R)-3-[(2S)-2-Cyclopentyl-2-hydroxy-2-thien-2-ylacetoxy]-1-(3-phenylsulfanylpropyl)-1-azoniabicyclo[2.2.2]octane trifluoroacetate] are 88.1% and 72.6%.
Turning to `O=C(CCC[N+]12CCC(CC1)[C@@H](OC(=O)[C@](O)(c1cccs1)C1CCCC1)C2)c1ccccc1` [Example 38, (3R)-3-[(2S)-2-Cyclopentyl-2-hydroxy-2-thien-2-ylacetoxy]-1-(4-oxo-4-phenylbutyl)-1-azoniabicyclo[2.2.2]octane trifluoroacetate], the inhibition at 0.1 µM amounted to 86.3% and the inhibition at 0.01 µM amounted to 57.7%.
`O=C(O[C@H]1C[N+]2(CCCOc3ccccc3Cl)CCC1CC2)[C@](O)(c1cccs1)C1CCCC1` [Example 40, 1-[3-(2-Chlorophenoxy)-propyl]-(3R)-3-[(2S)-2-cyclopentyl-2-hydroxy-2-thien-2-ylacetoxy]-1-azoniabicyclo[2.2.2]octane trifluoroacetate]: the inhibition at 0.1 µM is 86.9% and the inhibition at 0.01 µM worked out at 72.7%.
For the compound `O=C(O[C@H]1C[N+]2(CCCOc3ccc(F)cc3F)CCC1CC2)[C@](O)(c1cccs1)C1CCCC1` [Example 43, (3R)-3-[(2S)-2-Cyclopentyl-2-hydroxy-2-thien-2-ylacetoxy]-1-[3-(2,4-difluorophenoxy)propyl]-1-azoniabicyclo[2.2.2]octane trifluoroacetate], the inhibition at 0.1 µM was 83.4% and the inhibition at 0.01 µM turned out to be 58.7%.
In the case of `COc1ccc(OCCC[N+]23CCC(CC2)[C@@H](OC(=O)[C@](O)(c2cccs2)C2CCCC2)C3)cc1` [Example 44, (3R)-3-[(2S)-2-Cyclopentyl-2-hydroxy-2-thien-2-ylacetoxy]-1-[3-(4-methoxyphenoxy)propyl]-1-azoniabicyclo[2.2.2]octane trifluoroacetate], the inhibition at 0.1 µM was 84.6% and the inhibition at 0.01 µM stood at 44.6%.
On the same counts, the results for `O=C(O[C@H]1C[N+]2(CCCOc3ccc4c(c3)OCO4)CCC1CC2)[C@](O)(c1cccs1)C1CCCC1` [Example 46, 1-[3-(Benzo[1,3]dioxol-5-yloxy)propyl]-(3R)-3-[(2S)-2-cyclopentyl-2-hydroxy-2-thien-2-ylacetoxy]-1-azoniabicyclo[2.2.2]octane trifluoroacetate] are 87.1% and 57.6%.
As to `O=C(O[C@H]1C[N+]2(CCCOc3ccccc3)CCC1CC2)[C@@](O)(c1cccs1)C1CCCC1` [Example 53, (3R)-3-[(2R)-2-cyclopentyl-2-hydroxy-2-thien-2-ylacetoxy]-1-(3-phenoxypropyl)-1-azoniabicyclo[2.2.2]octane bromide], the inhibition at 0.1 µM amounted to 81.5% and the inhibition at 0.01 µM worked out at 58%.
On the same counts, the results for `O=C(O[C@H]1C[N+]2(CCCc3cccs3)CCC1CC2)[C@@](O)(c1cccs1)C1CCCC1` [Example 54, (3R)-3-[(2R)-2-Cyclopentyl-2-hydroxy-2-thien-2-ylacetoxy]-1-(3-thien-2-ylpropyl)-1-azoniabicyclo[2.2.2]octane trifluoroacetate] are 72.5% and 44.1%.
In the same order, the values of `O=C(O[C@H]1C[N+]2(CCc3ccccc3)CCC1CC2)[C@@](O)(c1cccs1)C1CCCC1` [Example 56, (3R)-3-[(2R)-2-Cyclopentyl-2-hydroxy-2-thien-2-ylacetoxy]-1-phenethyl-1-azoniabicyclo[2.2.2]octane trifluoroacetate] are 77.3% and 53.8%.
`O=C(O[C@H]1C[N+]2(CCCc3ccccc3)CCC1CC2)[C@@](O)(c1cccs1)C1CCCC1` [Example 57, (3R)-3-[(2R)-2-Cyclopentyl-2-hydroxy-2-thien-2-ylacetoxy]-1-(3-phenylpropyl)-1-azoniabicyclo[2.2.2]octane trifluoroacetate]: the inhibition at 0.1 µM turned out to be 77.4% and the inhibition at 0.01 µM was 47.1%.
In the same order, the values of `O=C(O[C@H]1C[N+]2(CCCc3cccs3)CCC1CC2)[C@@](O)(c1ccco1)C1CCCC1` [Example 61, (3R)-3-[(2S)-2-Cyclopentyl-2-fur-2-yl-2-hydroxyacetoxy]-1-(3-thien-2-ylpropyl)-1-azoniabicyclo[2.2.2]octane trifluoroacetate] are 75.1% and 39.9%.
On the same counts, the results for `O=C(O[C@H]1C[N+]2(CCCOc3ccccc3)CCC1CC2)[C@](O)(c1ccco1)C1CCCC1` [Example 64, (3R)-3-[(2R)-2-Cyclopentyl-2-fur-2-yl-2-hydroxyacetoxy]-1-(3-phenoxypropyl)-1-azoniabicyclo[2.2.2]octane trifluoroacetate] are 78.6% and 64.5%.
Consider `O=C(O[C@H]1C[N+]2(CCCc3cccs3)CCC1CC2)[C@](O)(c1ccco1)C1CCCC1.O=C([O-])C(F)(F)F` [Example 65, (3R)-3-[(2R)-2-Cyclopentyl-2-fur-2-yl-2-hygroxyacetoxy]-1-(3-thien-2-ylpropyl)-1-azoniabicyclo[2.2.2]octane trifluoroacetate], for which the “% INHIBITION concentration: 1.00E−08 M” value (0.01 µM) came to 66.0%. For the same compound, the “% INHIBITION concentration: 1.00E−07 M” value (0.1 µM) is 79.8%.
